Like-named read-outs stand apart in the source and are kept apart here. A value given as a limit tells only on which side of the number the result lay.

Data on 2 compounds can be found in patent publication EP0086757A1, “Derivatives of alpha or beta-mercaptopropionylamidoacetic acids, processes for their preparation and the therapeutic compositions which include them as active principles” (Farmatis S.r.l., priority 1982, dated 1983).

The subject of data set [1] is Carragenin-induce edema in hind paw of the rat. Conditions: comparison value for a classical antiphlogistic; cited from earlier work.
Data set [2] has as its system rats which underwent CCl4 nebulization treatment. As to the kind of experiment: CCl4 nebulization, bronchial mucosa protection. As to conditions: oral 0.5 g/kg/die; CCl4 nebulization 10 days, 5 applications, 2 minutes per day. It counts as in vivo. The source says: Finally, with the rats which underwent CCl4 nebulization treatment for 10 days (5 applications, 2.minutes per day), the contemporaneous oral administration of the esters of this invention, at doses of 0.5 g/kg/die, prevented intrabronchial desquamation and reactive hyperplasia of the mucosa to the extent of 60%.

In data set [3] the test system is glycopeptides of the bronchial mucus. As to the kind of experiment: glycopeptide analysis of bronchial mucus of orally treated patients with bronchial hypersecretion. It counts as in vivo. As to conditions: comparative test, 70 mg/kg/die.
Data set [4] concerns Carragenin-induce edema in hind paw of the rat. As to the kind of experiment: carragenin-induced hind paw edema (anti-inflammatory activity). As to conditions: oral by esophagal probe one hour before carragenin; paw volume three hours later. It counts as in vivo, rats. How it is done: The anti-inflammatory activity was investigated on rats by administering the new products,orally,using an esophagal probe. One hour after administration, a subcutaneous injection of 0.05 ml of 1% carragenin was made in the right hind paw and three hours later a plethysmometric evaluation was made of the difference in volume between the two hind paws (WINTER C.A., RISLEY E.A., NUSS G.W., Carragenin-induce edema in hind paw of the rat as an assay for anti-inflammatory drugs. Proc. Soc. Exp. Biol. Med., 111, 544 - 1962).

The subject of another data set is aerosol histaminic shock. As to the kind of experiment: aerosol histaminic shock (antibronchospastic activity). It counts as in vivo. The protocol: The antibronchospastic activity of the new compounds, in face, was evaluated by pretreating test animals with 2 g/kg of the new compounds, administered by way of an esophagal probe, and then submitting them to aerosol histaminic shock (histamine phosphate 1:80 at about 140 mm Eg). The time was noted between when the aerosol was given and the convulsions began. After two hours of pretreatment, times amounting to 70% of the approximately 120 seconds of the control group were obtained. […] The new compounds, therefore, provide intense and persistent protection against bronchspasm induced experimentally with histamine, in strict correlation with the anti-inflammatory activity reported previously.

For data set [5], the system named is bronchial hypersecretion induced in rats with SO2. As to the kind of experiment: bronchial hypersecretion induced with SO2 inhalation. In kind it is in vivo. As to conditions: oral 0.5 g/kg/die for two weeks; 300 ppm SO2 two hours per day, total 90 hours; untreated 80%. How it is done:
The inhalation of 300 ppm of […] for two hours per day, for a total period of 90 hours, produced bronchial obstruction in only 12% of the animals compared to the 80% produced in those not treated. […] Finally, with the rats which underwent CCl4 nebulization treatment for 10 days (5 applications, 2.minutes per day), the contemporaneous oral administration of the esters of this invention, at doses of 0.5 g/kg/die, prevented intrabronchial desquamation and reactive hyperplasia of the mucosa to the extent of 60%.

A short description of another data set: acute toxicity (DL50). In kind it is in vivo. The protocol: In fact, while S-carboxymethylcysteine has a DL50 of 5.18 g/kg, the new thiolic esters' DL50 cannot be determined, i.p., since more than 5 g/kg cannot be administered; but, orally, the DL50 is above 8 g/kg, as with the S-carboymethylcysteine. The subacute, chronic and fetal toxi city was evaluated by mixing the esters with the food.

For `CC(=O)Oc1ccccc1C(=O)O` [acetylsalicylic acid], the DE50 in data set [1] is recorded as 100 mg/kg.

With `N[C@@H](CSCC(=O)O)C(=O)O` [S-carboxymethylcysteine], the “prevention of intrabronchial desquamation and reactive hyperplasia of the mucosa” value in data set [2] was at most 40%. In data set [3], the “average increase in sialoglycopeptides” value is at most 75%; the “diminution of glycopeptides and mucin” value is on record as at most 45%. Moreover, the DE50 result in data set [4] is reported as “not determinable”. The “difference between the control and tested subjects in time to convulsions” value in the data set on aerosol histaminic shock is reported as “no appreciable difference”. Further, in data set [5], the “animals with bronchial obstruction (not protected)” value stood at 25%. Moreover, the DL50 in the data set “acute toxicity (DL50)” (i.p. (route only implied for the comparator), more than 5 g/kg cannot be administered) is given as 5.18 g/kg. For the same compound, the DL50 entry in “acute toxicity (DL50)” (orally) is listed as “above 8 g/kg”.
